Test results published in patent US12350273B2, “Treatment of SMA” (Hoffmann-La Roche Inc., priority 2017, dated 2025).

Columns and labels:
Melanin binding in vitro = type: in vitro ADME
FoxM1 = experiment: Alternative splicing of FoxM1 in SMA Type 1 patient fibroblasts (RT-qPCR); type: cell-based; conditions: Homo sapiens, Fibroblast, 24 hours, read-out: EC50 for FoxM1 full-length (FL) mRNA
Description: FIG. 4: Alternative Splicing of FoxM1 In Vitro • SMA Type 1 patient fibroblasts were treated with RO7034067 for 24 hours, and FoxM1 full-length (FL) and exon 9-lacking (Δ9) mRNAs were analyzed by RT-qPCR. Data represent means±SEM of 6 repetitions and are expressed as fold change vs. untreated controls.
FoxM1, a gene alternatively spliced by other splicing modifier compounds, encodes a cell cycle regulator. […] Increased abundance of the FoxM1A isoform, together with decreased abundance of FoxM1 isoforms lacking exon 9, has the capability to disturb and inhibit cell cycle progression if splicing changes are at a level that is biologically significant. Thus, RO7034067 acts in a similar way on the SMN2 and FoxM1 splicing machinery, but with opposing outcomes with regard to protein function. MADD, a gene involved in apoptosis processes, has also been identified as a secondary splice target.

retina [1] = conditions: monkey, in vivo
Text: Over the in-life duration of the 39-week monkey toxicity study with RO7034067, the low dose remained free of any test-item related changes in sdOCT and ERG until the last week of assessment (week 35).

[2] = Stability of test item formulations; type: physicochemical; conditions: formulations 0.025 to 5 mg/mL, 2 to 8° C., absence of oxygen (under nitrogen)
Description: The test item was formulated as a solution in 10 mM ascorbic acid/0.0064 mg/mL sodium thiosulfate at pH 3. The formulations were stored at 2 to 8° C. with absence of oxygen (under nitrogen), protected from the light in a sealed container. They were allowed to reach room temperature prior to dosing and were stirred on arrival at the animal room and then continuously throughout dosing.

[3] = tested on: FOXM1B/C transcript variants; experiment: FOXM1B/C mRNA expression in human iPSCs (RT-qPCR); type: cell-based; conditions: 24 h
Description: FIG. 5A-FIG. 5B: Effect of RO7034067 on FOXM1 mRNA expression levels in human and Cynomolgus monkey iPSCs • Cells were treated with RO7034067 for 24 hours, and FOXM1 B/C transcript variants were analyzed by RT-PCR. Data represent means±SEM of 3 repetitions and are expressed as fold change vs. controls. IC50 values are indicated. FIG. 5A. human iPSCs. FIG. 5B. Cynomolgus monkey iPSCs
Human iPSCs (hIPS_Neo_Clone_1) were cultivated in mTeSR1 (Stem Cell Technologies) as standard medium and Cynomolgus monkey iPSCs (cips_54-1285_cFIB_Clone_8) in MT medium supplemented with 10 ng/ml ActivinA and 15 ng/ml FGF2.
For gene expression profiling, stem cells were detached with Accutase (Stem Cell Technologies) and plated in 12 well plates coated with Matrigel (BD Biosciences) in the respective standard medium supplemented with 10 μM Rock inhibitor Y-27632 (Sigma-Aldrich). In order to obtain enough RNA, monkey stem cells were seeded at 15000 cells/cm2 and human stem cells were seeded at 40000 cells/cm2 24 h prior to treatment. Thereafter stem cells were treated for 24 h with serial dilutions (1:5) of test items in fresh, pre-warmed medium in a concentration range from 0.64 nM till ˜10 μM. To stop the experiment, cells were lysed in QiaGen's lysis buffer RLT with beta-mercaptoethanol.
Human and Cynomolgus monkey mRNA expression was measured with customized primer and FAM fluorescently-labeled Universal Probe Library (UPL) probes from Roche or probes from Microsynth containing a 5′ FAM label and a 3′ terminal BlackHole Dark Quencher 1 (BHQ1). The sequences of the primer and FAM labeled probes are listed as follows:
For quantitative Real-Time-PCR, cells cultivated in a 12 well plate and treated with Roche-compounds for 24 h were lysed in 500 ul/well of QiaGen's lysis buffer RLT with beta-mercaptoethanol. Total RNA was extracted with the RNeasy Mini kit combined with DNase treatment on a solid support. RNA integrity was controlled by using Nanodrop absorption spectroscopy and microfluidic capillary array electrophoresis profiles from an Agilent Bioanalyzer
2100. Between 300 ng to 800 ng of total RNA were reverse transcribed with oligo-dT primer and spiked MS2 RNA at 10 ng/uL final concentration using the Transcriptor First Strand cDNA Synthesis Kit (Roche Applied Science #04379012001) following the manufacturer's recommended protocol. The quantitative PCR was performed on a LightCycler 480 qPCR machine using 67.5 ng total RNA derived cDNA as input in a 20 μl mixture containing 1× LightCycler 480 Probes Master, 0.4 μM forward and reverse primers, and 0.2 μM FAM labeled hydrolysis probe. The temperature program consisted of pre-incubation at 95° C. for 10 min, followed by 50 cycles of amplification (95° C. for 10 s, 60° C. for 30 s, 72° C. for 5 s). Negative control reactions were conducted in the absence of cDNA template to confirm absence of cDNA contamination in the master mix. Measurements of Ct (cycle threshold)-values were performed for each sample-mRNA combination. Using the 2-ΔΔCt method (Livak K J et al. Method. Methods. 2001; 25(4):402-8), the data are presented as the fold change in gene expression normalized to an endogenous reference gene and relative to the untreated control. To derive individual ΔCt values, the Ct value for each target mRNA of each sample was normalized to the Ct value of the endogenous reference mRNA of GAPDH (glyceraldehyde-3-phosphate dehydrogenase). The […] was calculated by subtracting the ΔCt value of the vehicle-control group from the respective ΔCt value of each treatment group. Resultant expression ratios (2-ΔΔCt) mirrored treatment-related mRNA expression changes versus vehicle-controls. […] The model to derive the IC50 assumes that the dose response curves has a standard slope, equal to a Hill slope (or slope factor) of −1.0. Model equation: Y=Bottom+(Top-Bottom)/(1+10^((X-Log IC50))); with Y being the response data and X being log 10 concentrations in μM.

retina [4] = experiment: 26 weeks of treatment in pigmented rats: retina; type: in vivo

In the case of `Cc1cn2nc(-c3cc(=O)n4cc(N5CCNC6(CC6)C5)ccc4n3)cc(C)c2n1` [RO7034067, 7-(4,7-diazaspiro[2.5]octan-7-yl)-2-(2,8-dimethylimidazo[1,2-b]pyridazin-6-yl)pyrido[1,2-a]pyrimidin-4-one], the melanin binding (Melanin binding in vitro) is reported as “high melanin binding”, the EC50 (FoxM1) is reported as 67 ± 32 nM and the “individual AUC0-24h exposures without retina changes” value (retina [1]) is reported as “up to 15,100 ng·h/mL”. For the same molecule, the “time formulations were stable” value [2] was “up to 4 weeks”, the “Mean FOXM1B/C relative mRNA expression (2^-ΔΔCt vs control)” value ([3]; 0.64 nM) was 1.115 and the “Mean FOXM1B/C relative mRNA expression (2^-ΔΔCt vs control)” value ([3]; 3.2 nM) was 1.032. For the same molecule, the “Mean FOXM1B/C relative mRNA expression (2^-ΔΔCt vs control)” value ([3]; 16 nM) was 0.898, the “Mean FOXM1B/C relative mRNA expression (2^-ΔΔCt vs control)” value ([3]; 80 nM) was 0.748 and the “Mean FOXM1B/C relative mRNA expression (2^-ΔΔCt vs control)” value ([3]; 400 nM) was 0.178. For the same molecule, the “Mean FOXM1B/C relative mRNA expression (2^-ΔΔCt vs control)” value ([3]; 2000 nM) was 0.185, the “Mean FOXM1B/C relative mRNA expression (2^-ΔΔCt vs control)” value ([3]; 10000 nM) was 0.102 and the IC50 ([3]; iPSC, read-out: IC50 on expression levels of FOXM1B/C) was 114 nM. For the same molecule, the retinal effects (retina [4]) was “no evidence for any retinal effects”.
